Reference: patent US20260274833A1 (NiKang Therapeutics, Inc., priority 2022, published 2026)

What follows are compounds tested against T1, CDK2 (Homo sapiens, UniProt P24941) (assay: Phospho-RB measurement in OVCAR3 cells (HTRF phospho-RB cellular kit)). Details: inhibition of RB phosphorylation at S807/811 (HTRF, TR-FRET ratio 665/620), 24 h compound treatment, 0.3 to 10,000 nM.
T1 construct: endogenous in cells; host or cells: OVCAR3 cells
Assay type: cell-based
Outline: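 IC50 came from a four-parameter logistic fit of the DMSO-normalized TR-FRET ratio (665/620 nm). That ratio reflects RB phosphorylation at S807/811, read with an HTRF antibody pair 4 h after adding lysate at room temperature.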

| Structure (SMILES) | IC50 |
| --- | --- |
| CC(C)(c1nc(-c2cccc(NS(=O)(=O)N3CCc4ccccc43)c2F)c(-c2ccnc(N[C@H]3CC[C@H](S(C)(=O)=O)CC3)n2)s1)C(F)(F)F [Example 288, N-(2-fluoro-3-(5-(2-(((1r,4r)-4-(methylsulfonyl)cyclohexyl)amino)-pyrimidin-4-yl)-2-(1,1,1-trifluoro-2-methylpropan-2-yl)thiazol-4-yl)phenyl)-indoline-1-sulfonamide] | 122 nM |
| CC(C)(c1nc(-c2cccc(NS(=O)(=O)N3CCc4ccc(Cl)cc43)c2F)c(-c2ccnc(N[C@H]3CC[C@H](S(C)(=O)=O)CC3)n2)s1)C(F)(F)F [Example 289, 6-chloro-N-(2-fluoro-3-(5-(2-(((1r,4r)-4-(methylsulfonyl)cyclohexyl)amino)pyrimidin-4-yl)-2-(1,1,1-trifluoro-2-methyl-propan-2-yl)thiazol-4-yl)phenyl)-indoline-1-sulfonamide] | 110 nM |
| CC(C)(c1nc(-c2cccc(NS(=O)(=O)N3CCc4ccc(C(F)(F)F)cc43)c2F)c(-c2ccnc(N[C@H]3CC[C@H](S(C)(=O)=O)CC3)n2)s1)C(F)(F)F [Example 290, N-(2-fluoro-3-(5-(2-(((1r,4r)-4-(methylsulfonyl)cyclohexyl)amino)-pyrimidin-4-yl)-2-(1,1,1-trifluoro-2-methylpropan-2-yl)thiazol-4-yl)phenyl)-6-(trifluoromethyl) indoline-1-sulfonamide] | 298 nM |
| CC1(C)CN(S(=O)(=O)Nc2cccc(-c3nc(C45CC(C(F)(F)F)(C4)C5)sc3-c3ccnc(N[C@H]4CC[C@H](S(C)(=O)=O)CC4)n3)c2F)c2ccccc21 [Example 291, N-(2-fluoro-3-(5-(2-(((1r,4r)-4-(methylsulfonyl)cyclohexyl)amino)pyrimidin-4-yl)-2-(3-(trifluoromethyl)-bicyclo[1.1.1]pentan-1-yl)thiazol-4-yl)phenyl)-3,3-dimethylindoline-1-sulfonamide] | 2750 nM |
| CN1CC2CCC(C1)N2c1nc(-c2cccc(NS(=O)(=O)N3CCc4ccc(C(F)(F)F)cc43)c2F)c(-c2ccnc(NC3CC4(C3)CS(=O)(=O)C4)n2)s1 [Example 292, N-(3-(5~(2-((2,2-dioxido-2-thiaspiro-[3.3]heptan-6-yl)amino)pyrimidin-4-yl)-2-(3-methyl-3,8-diazabicyclo[3.2.1]-octan-8-yl)thiazol-4-yl)-2-fluorophenyl)-6-(trifluoromethyl) indoline-1-sulfonamide] | 29.9 nM |
| O=S1(=O)CC2(CC(Nc3nccc(-c4sc(N5C6CCC5CN(C5CC(F)(F)C5)C6)nc4-c4cccc(NS(=O)(=O)N5CCc6ccc(C(F)(F)F)cc65)c4F)n3)C2)C1 [Example 293, N-(3-(2-(3-(3,3-difluorocyclobutyl)-3,8-diazabicyclo[3.2.1]octan-8-yl)-5-(2-((2,2-dioxido-2-thiaspiro[3.3]heptan-6-yl)amino)pyrimidin-4-yl)thiazol-4-yl)-2-fluorophenyl)-6-(trifluoromethyl)-indoline-1-sulfonamide] | 372 nM |

More lines, now with the values ahead:

| IC50 | Structure (SMILES) |
| --- | --- |
| 42.9 nM | CN1CC2CCC(C1)N2c1nc(-c2cccc(NS(=O)(=O)N3CCc4ccc(C(F)(F)F)cc43)c2F)c(-c2ccnc(N[C@H]3CC[C@H](S(C)(=O)=O)CC3)n2)s1 [Example 294, N-(2-fluoro-3-(2-(3-methyl-3,8-diazabicyclo[3.2.1]octan-8-yl)-5-(2-(((1r,4r)-4-(methylsulfonyl)cyclohexyl)-amino)pyrimidin-4-yl)thiazol-4-yl)phenyl)-6-(trifluoromethyl) indoline-1-sulfonamide] |
| 536 nM | CS(=O)(=O)[C@H]1CC[C@H](Nc2nccc(-c3sc(N4C5CCC4CN(C4CC(F)(F)C4)C5)nc3-c3cccc(NS(=O)(=O)N4CCc5ccc(C(F)(F)F)cc54)c3F)n2)CC1 [Example 295, N-(3-(2-(3-(3,3-difluorocyclobutyl)-3,8-diazabicyclo[3.2.1]octan-8-yl)-5-(2-(((1r,4r)-4-(methylsulfonyl)cyclohexyl)-amino)pyrimidin-4-yl)thiazol-4-yl)-2-fluorophenyl)-6-(trifluoromethyl)-indoline-1-sulfonamide] |
| 1190 nM | CS(=O)(=O)[C@H]1CC[C@H](Nc2nccc(-c3sc(N4C5CCC4CN(CC(F)(F)F)C5)nc3-c3cccc(NS(=O)(=O)N4CCc5ccc(C(F)(F)F)cc54)c3F)n2)CC1 [Example 296, N-(2-fluoro-3-(5-(2-(((1r,4r)-4-(methylsulfonyl)cyclohexyl)amino)-pyrimidin-4-yl)-2-(3-(2,2,2-trifluoroethyl)-3,8-diazabicyclo[3.2.1]-octan-8-yl)thiazol-4-yl)phenyl)-6-(trifluoromethyl) indoline-1-sulfonamide] |
| 103 nM | C[C@H]1COC[C@H](C)N1c1nc(-c2cccc(NS(=O)(=O)N3CCc4ccc(C(F)(F)F)cc43)c2F)c(-c2ccnc(N[C@H]3CC[C@H](S(C)(=O)=O)CC3)n2)s1 [Example 297, N-(3-(2-((38, 5S)-3,5-dimethyl-morpholino)-5-(2-(((1r,4S)-4-(methyl-sulfonyl)cyclohexyl)amino)pyrimidin-4-yl)thiazol-4-yl)-2~fluorophenyl)-6-(trifluoromethyl) indoline-1-sulfonamide] |
| 130 nM | CS(=O)(=O)[C@H]1CC[C@H](Nc2nccc(-c3sc(N4C5CCC4CC(F)(F)C5)nc3-c3cccc(NS(=O)(=O)N4CCc5ccc(C(F)(F)F)cc54)c3F)n2)CC1 [Example 298, N-(3-(2-(3,3-difluoro-8-azabicyclo-[3.2.1]octan-8-yl)-5-(2-(((1r,4r)-4-(methylsulfonyl)cyclohexyl)amino)-pyrimidin-4-yl)thiazol-4-yl)-2-fluoro-phenyl)-6-(trifluoromethyl)-indoline-1-sulfonamide] |
| 449 nM | CS(=O)(=O)[C@H]1CC[C@H](Nc2nccc(-c3sc(N4C5CCC4CN(CC(F)F)C5)nc3-c3cccc(NS(=O)(=O)N4CCc5ccc(C(F)(F)F)cc54)c3F)n2)CC1 [Example 299, N-(3-(2-(3-(2,2-difluoroethyl)-3,8-diazabicyclo[3.2.1]octan-8-yl)-5-(2-(((1r,4r)-4-(methylsulfonyl)cyclohexyl)-amino)pyrimidin-4-yl)thiazol-4-yl)-2-fluorophenyl)-6-(trifluoromethyl)-indoline-1-sulfonamide] |
